This is an account of results in US5942494A, “Stimulation of gene expression and synthesis of heat shock protein 72/73 (HSP 70)” (The Trustees of Columbia University in the City of New York, priority 1996, dated 1999).

One test deals with HSF1. In words: EGS cross-linking and Western blot of HSF1 oligomeric forms in HepG2 cells. It is filed as cell-based, human. The following applies: ALLN 40 μg/ml, 2 hours at 37° C., EGS cross-linking. On the procedure:
FIGS. 6A-6B: ALLN affects the trimerization of HSF. HepG2 cells were treated with serum-free MEM containing 1.5% BSA for 2 hours at 37° C. without any additions (lane1), at 37 ° C. but containing 40μg/ml of ALLN in the medium (lane2), at 37° C. in a medium containing both ALLN and 50 μg/ml of cycloheximide (lane3) , at 42° C. alone (lane4), or at 42° C. plus cycloheximide in the medium (lane5). Cell lysates were prepared as described under Experimental Details. The lysates were either directly run on the SDS-PAGE (A) to show the steady-state protein levels of HSF1 or subjected to cross-linking with ethylene glycol bis sucrinimidylsuccinate (EGS) before running the gel (B) to show the oligomeric forms of HSF1. The proteins were then transfered to a nitrocellulose membrane and immunoblotted with anti-human HSF1 antibody. Arrows on the right side indicates the monomeric, dimeric or trimeric forms of HSF1, respectively. This experiment was repeated three times with identical results.
For measurement of the steady-state HSF1 protein levels, whole cell extracts were prepared by lysing the cells directly with 2×SDS-sample buffer (Maniatis, et al., 1982). For chemical cross-linking experiments, whole-cell extracts were prepared as described (Mosser, et al., 1988). Briefly, the cold PBS-washed cell pellets were quickly and repeatedly frozen in liquid nitrogen. […]

A further test relates to Hsp70. The experiment in a line: Cellular Hsp70 levels in CHO cells. The test is classed as cell-based, Chinese hamster.
Another test has as its system calpain. The settings on record: Rock, et al., 1994; cited from earlier work.

Square brackets hold non-standard residues; d marks the D form. Peptide text beside a SMILES is read from it. Nle = CCCC[C@H](N)C(=O)O

For the molecule `CCCC[C@@H](C=O)NC(=O)[C@H](CC(C)C)NC(=O)[C@H](CC(C)C)NC(C)=O` [ALLN, N-acetyl-leucyl-leucyl-norleucinal] (Ac-Leu-Leu-[Nle]-aldehyde), the “Oligomeric form of HSF1 (270-kDa cross-linked product)” value in the test with HSF1 is given as “trimer”. The “Response of cellular Hsp70 levels” value with Hsp70 is reported as “increasing cellular Hsp70 levels”. Also, the Activity against calpain result in the test on calpain is recorded as “significant activities”.
